Data taken from US7223760B2, “Substituted triazole compounds” (SmithKline Beecham Corporation, priority 1998, dated 2007).

Key:
[1] = system: Interleukin-1 (IL-1); assay: Interleukin-1 (IL-1) production by LPS-stimulated human peripheral blood monocytes; type: cell-based; conditions: Monocyte, lipopolysaccharide 50 ng/ml, 24 h
Method: Human peripheral blood monocytes are isolated and purified from either fresh blood preparations from volunteer donors, or from blood bank buffy coats, according to the procedure of Colotta et al, J Immunol, 132, 936 (1984). These monocytes (1×10^6) are plated in 24-well plates at a concentration of 1–2 million/ml per well. The cells are allowed to adhere for 2 hours, after which time non-adherent cells are removed by gentle washing. Test compounds are then added to the cells for 1 h before the addition of lipopolysaccharide (50 ng/ml), and the cultures are incubated at 37° C. for an additional 24 h. At the end of this period, culture supernatants are removed and clarified of cells and all debris. Culture supernatants are then immediately assayed for IL-1 biological activity, either by the method of Simon et al., J. Immunol. Methods, 84, 85, (1985) (based on ability of IL-1 to stimulate a Interleukin 2 producing cell line (EL-4) to secrete IL-2, in concert with A23187 ionophore) or the method of Lee et al., J. ImmunoTherapy, 6 (1), 1–12 (1990) (ELISA assay).

[2] = target: T1, CSBP/p38 (Homo sapiens, UniProt Q16539); assay: CSBP/p38 Kinase Assay (32P transfer to T669 peptide); type: biochemical; conditions: "in this binding assay or a similar assay"; read-out: positive inhibitory activity, IC50
T1 construct: made in house; host or cells: yeast
Method: This assay measures the CSBP/p38-catalyzed transfer of ^32p from [a-^32P]ATP to threonine residue in an epidermal growth factor receptor (EGFR)-derived peptide (T669) with the following sequence: […] (residues 661–681). (See Gallagher et al., “Regulation of Stress Induced Cytokine Production by Pyridinyl Imidazoles: Inhibition of CSBP Kinase”, BioOrganic & Medicinal Chemistry, 1997, 5, 49–64).
Reactions were carried in round bottom 96 well plate (from Corning) in a […]. Reactions contained (in final concentration): 25 mM Hepes, pH 7.5; 8 mM MgCl2; 0.17 mM ATP (the Km[ATP] of p38 (see Lee et al., Nature 300, n72 pg. 639–746 (December 1994)); 2.5 uCi of [g-32P]ATP; 0.2 mM sodium orthovanadate; 1 mM DTT; 0.1% BSA; 10% glycerol; 0.67 mM T669 peptide; and 2–4 nM of yeast-expressed, activated and purified p38. Reactions were initiated by the addition of [gamma-32P]Mg/ATP, and incubated for 25 min. at 37° C. Inhibitors (dissolved in DMSO) were incubated with the reaction mixture on ice for 30 minutes prior to adding the 32P-ATP. Final DMSO concentration was 0.16%. Reactions were terminated by adding 10 ul of 0.3 M phosphoric acid, and phosphorylated peptide was isolated from the reactions by capturing it on p81 phosphocellulose filters. Filters were washed with 75 mM phosphoric acids, and incorporated 32P was quantified using beta scintillation counter. […]

T1 sequence (Q16539 whole entry): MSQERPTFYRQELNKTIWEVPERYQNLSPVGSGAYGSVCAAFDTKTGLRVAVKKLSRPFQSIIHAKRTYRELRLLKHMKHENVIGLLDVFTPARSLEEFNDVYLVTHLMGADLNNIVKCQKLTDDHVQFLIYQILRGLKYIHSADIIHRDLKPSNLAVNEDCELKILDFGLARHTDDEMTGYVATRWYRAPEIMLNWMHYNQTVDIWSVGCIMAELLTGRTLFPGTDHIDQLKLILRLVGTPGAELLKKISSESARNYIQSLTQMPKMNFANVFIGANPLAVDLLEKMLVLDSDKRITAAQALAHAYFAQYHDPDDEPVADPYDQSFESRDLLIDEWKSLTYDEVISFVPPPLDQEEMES

Compound | IC50 [1] | IC50 [2]
Fc1ccc(-c2nc(-c3ccccc3)nn2-c2ccncc2)cc1 [Example 1, 1-(Pyrid-4-yl)-3-phenyl-5-(4-fluorophenyl)-1,2,4-triazole] | < 7 µM | 
Nc1cc(-n2nc(-c3ccccc3)nc2-c2ccc(F)cc2)ncn1 [Example 2, 1-(6-Aminopyrimidin-4-yl)-3-phenyl-5-(4-fluorophenyl)-1,2,4-triazole] |  | < 50 µM
